Results reported in PubChem BioAssay (NCI).
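Interpolation was linear, between the two tested concentrations surrounding the appropriate level; five concentrations were tested over 48 hours in 96-well plates. The concentration for 50% growth inhibition is given as GI50. TGI: total growth inhibition.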

Legend:
Assay in all cases: inhibition of tumour cell growth, NCI panel, 48 h
[1] = system: HL-60(TB) leukemia
[2] = system: HOP-62 NSCLC
[3] = system: LOX IMVI melanoma
[4] = system: RXF 393 renal
[5] = system: SK-MEL-5 melanoma
[6] = system: TK-10 renal
[7] = system: UACC-257 melanoma
[8] = system: MDA-MB-231 breast
[9] = system: NCI-H226 lung
[10] = system: HS 578T breast

Row | SMILES | GI50 [1] [µM] | TGI [1] [µM] | GI50 [2] [µM] | TGI [2] [µM] | GI50 [3] [µM] | TGI [3] [µM] | GI50 [4] [µM] | TGI [4] [µM] | GI50 [5] [µM] | TGI [5] [µM] | GI50 [6] [µM] | TGI [6] [µM] | GI50 [7] [µM] | TGI [7] [µM] | TGI [8] [µM] | TGI [9] [µM] | GI50 [9] [µM] | GI50 [10] [µM] | TGI [10] [µM] | GI50 [8] [µM]
1 | CC(=O)[CH-]C(=O)c1ccccc1.CC(=O)[CH-]C(=O)c1ccccc1.[Eu+3].[OH-].[OH3+] | > 100 | > 100 | > 100 | > 100 | > 100 | > 100 | > 100 | > 100 | > 100 | > 100 | > 100 | > 100 | > 100 | > 100 | – | – | – | – | – | –
2 | CCOC(=O)N1CCc2cc(OC)c(OC)c3c2c1cc1cc(OC)c(OC)cc13 | – | > 100 | – | > 83.6 | – | 52.3 | – | 12.1 | – | 32.9 | – | > 100 | – | > 81.7 | > 100 | > 100 | – | – | – | –
3 | CCC1(c2c(F)c(F)c(N)c(F)c2F)CCC(=O)NC1=O (stereo not drawn) | – | > 100 | – | > 100 | – | > 100 | – | – | – | > 100 | – | > 100 | – | > 100 | – | > 100 | – | – | – | –
4 | O=[N+]([O-])c1nccn1CC(O)CN1CC1 (stereo not drawn) | – | 73.1 | – | > 100 | – | – | – | 98.2 | – | > 100 | – | > 100 | – | > 100 | – | > 100 | – | – | – | –
5 | CN(C)c1ccc([O][Bi]([Cl])[Cl])cc1 | – | – | – | – | > 100 | > 100 | 82.2 | > 100 | 29.6 | > 100 | > 100 | > 100 | 37.2 | > 100 | – | > 100 | > 100 | – | – | –
6 | Cc1ccccc1C(=O)c1ccccc1O | – | > 100 | – | > 100 | – | > 100 | – | > 100 | – | > 100 | – | > 100 | – | > 100 | – | > 100 | – | – | – | –
7 | COC(=O)C(=O)OC1(C(C)=O)CC2(c3ccccc3)OC1(c1ccccc1)c1ccccc12 (stereo not drawn) | – | > 100 | – | 32.8 | – | 30.4 | – | 29 | – | 28.8 | – | 70.6 | – | 31.6 | – | 31.7 | – | – | – | –
8 | CC(=O)[CH-]C(=O)c1ccccc1.CC(=O)[CH-]C(=O)c1ccccc1.CC1(C)C2CCC1(C)C([O-])C2.CC1(C)C2CCC1(C)C([O-])C2.[Ti+4] | 23.8 | > 100 | 25.7 | 81.8 | 25.1 | > 100 | 17.6 | 36.1 | 21.9 | 39.1 | 53.5 | > 100 | 88.7 | > 100 | – | 90.7 | 23.2 | – | – | –
9 | C#CCC(Cc1cnc2nc(N)nc(N)c2n1)c1ccc(C(=O)N[C@@H](CCC(=O)O)C(=O)O)cc1 (stereo partly drawn) | < 0.01 | > 100 | < 0.01 | > 100 | < 0.01 | > 100 | < 0.01 | > 100 | < 0.01 | > 100 | < 0.01 | > 100 | 0.0243 | > 100 | – | > 100 | < 0.01 | > 100 | > 100 | –
10 | CC1(CO)OC(n2cc(C(=O)NC(=O)OCc3ccccc3)c(=O)[nH]c2=O)CC1O (stereo not drawn) | – | > 100 | – | > 100 | – | > 100 | – | – | – | > 100 | – | > 100 | – | > 100 | – | > 100 | – | – | – | –
11 | CCCCCCCCCCCCCC(=O)CC(=O)c1c(O)cccc1O | – | 41.7 | – | > 100 | – | 36.3 | – | > 100 | – | > 100 | – | > 100 | – | 85.3 | – | 80.3 | – | – | – | –
12 | N#Cc1c(NN)nc(NN)c(C#N)c1-c1ccccc1 | – | > 100 | – | > 100 | – | > 100 | – | > 100 | – | > 100 | – | > 100 | – | > 100 | – | > 100 | – | – | – | –
13 | CC(=O)[CH-]C(=O)c1ccccc1.CC(=O)[CH-]C(=O)c1ccccc1.CC(C)CCCC(C)[C@H]1CCC2[C@@H]3CC=C4C[C@@H]([O-])CC[C@]4(C)C3CC[C@@]21C.CC[O-].[Ti+4] (stereo partly drawn) | 42.3 | > 100 | 43.2 | > 100 | 81.1 | > 100 | – | – | 35.2 | > 100 | 45.6 | > 100 | 60.3 | > 100 | – | > 100 | > 100 | – | – | –
14 | O=c1cc2ccccc2nn1Cc1cccc(Cl)c1 | – | – | – | > 100 | – | > 100 | – | – | – | > 100 | – | > 100 | – | > 100 | – | > 100 | – | – | – | –
15 | C[S+](C)CCOC(=O)C(=[N+]=[N-])c1ccc([N+](=O)[O-])cc1 | – | > 100 | – | > 100 | – | – | – | > 100 | – | > 100 | – | > 100 | – | > 100 | – | > 100 | – | – | – | –
16 | COc1c(OC)c(OC)c2c(c1OC)c(=O)c1ccccc1n2C | – | > 100 | – | > 100 | – | > 100 | – | – | – | > 100 | – | > 100 | – | > 100 | > 100 | > 100 | – | – | > 100 | –
17 | CCCCCC/C=C1\CCC(CN2CCCC2)C1=O (stereo not drawn) | – | – | – | 34.2 | – | 22.4 | – | 33.5 | – | 32.8 | – | 17.4 | – | 32.7 | – | 34.3 | – | – | – | –
18 | CC(C)c1ccc(C2C3=C(N=C4SCC(=O)N42)C(=O)c2ccccc23)cc1 (stereo not drawn) | – | > 100 | – | > 100 | – | – | – | – | – | > 100 | – | > 100 | – | > 100 | – | > 100 | – | – | – | –
19 | CCC/C(=N/N=C(N)N)c1ccc(NC(=O)c2cc3cc(OC)ccc3[nH]2)cc1 | – | – | 10.1 | 30.2 | – | – | 10.6 | 30.8 | 10.1 | 27 | 17.9 | 39 | 16.2 | 37.5 | 29.4 | 41.7 | 14.7 | 14 | 48.4 | 11.5
20 | O=C(CC1(O)C(=O)Nc2c(Cl)ccc(Cl)c21)c1ccc2ccccc2c1 (stereo not drawn) | – | 4.04 | – | 99.2 | – | 31.9 | – | 27 | – | 17.7 | – | 44.4 | – | 25.3 | – | 39.1 | – | – | – | –
21 | O=C(Nc1cc(Cl)cc(Cl)c1)c1ccc(NC2=C(Cl)C(=O)N(Cc3ccc(Cl)cc3Cl)C2=O)cc1 | – | – | 34.1 | > 100 | 1.5 | 4.19 | 29.6 | > 100 | 1.16 | 2.65 | 0.768 | 26 | 24.8 | 53.1 | 41.8 | 35 | 14.4 | 8.12 | 54.7 | 19.6
